From patent US6933308B2 (Bristol-Myers Squibb Company, priority 2002, dated 2005)

Test system: KCNQ channels
Assay: Thallium flux assay for KCNQ channel openers
Format: cell-based
Conditions: HEK-293 cells stably transfected with a KCNQ family member; for Min conc. response: minimal active concentration: lowest concentration giving signal >= 4 SD of negative controls; for EC50: thallium flux, 10 point concentration series
Protocol: Thallium Flux Assay for KCNQ Channel Openers.
The thallium assay is a modification of that published by Weaver and is referenced in its entirety (Weaver, C. D. WO 02/31508, 2002).
Approximately 20,000 cells/well of an HEK-293 cell line stably transfected with one of the members of the KCNQ family were plated into clear-bottom, black-walled, poly-D-lysine coated, 384 well assay plates in 20 μl/well of low chloride plating medium. Low chloride plating medium was composed of the following: sodium gluconate, 109 mM; potassium gluconate, 5.4 mM; hemi-calcium gluconate, 3.6 mM; magnesium sulfate, 0.8 mM; sodium bicarbonate, 26.2 mM; sodium phosphate monobasic, 1.2 mM; glutamine, 2 mM; glucose, 5 mM; 4-(2-hydroxyethyl)-1-piperazineethanesulfonic acid (HEPES) (pH 7.3) 10 mM, MEM vitamin solution (10× concentration of vitamins, Gibco/LifeTechnologies 11120-052) and MEM amino acid solution (1× concentration of amino acids, Gibco/LifeTechnologies 11130-051).
Following overnight incubation in a 5% CO2 incubator at 37° C., the cells in the plates were loaded with 20 μl/well of a dye loading solution containing the commercially available thallium-sensitive fluorescent dye BTC-AM, the acetomethoxy ester of BTC (see U.S. Pat. No. 5,501,980) (2 μM) and pluronic acid F-127 (Molecular Probes P 6867) (0.02% w/v) in chloride free assay buffer. Chloride free assay buffer was composed of the following: sodium gluconate, 140 mM; potassium gluconate, 2.5 mM; hemi-calcium gluconate, 6 mM; hemi-magnesium gluconate, 2 mM; glucose, 5 mM; HEPES (pH 7.3), 10 mM.
Following incubation in the dye loading solution for from 45-90 min at room temperature, the dye loading solution was removed by aspiration and replaced with 40 μl/well of chloride free assay buffer.
Prior to addition to cell plates, test compound and standard compounds were dissolved in DMSO to 3 mM concentration. Compounds were then diluted from the 3 mM stock to 100-fold over the final assay concentration in DMSO. Finally, compounds in DMSO were diluted from 100-fold over the final assay concentration to 5-fold over the final assay concentration in chloride free assay buffer.
Ten μl/well of compounds at 5-fold over the final assay concentration were then added to the cell plates. This represents a 1:5 dilution, yielding the final test concentration. The wells used for test compounds were A1-P20. Wells A21-P22 contained a standard opener and a maximally efficacious concentration (positive control). Wells A23-P24 contained chloride free assay buffer containing 1% DMSO (negative control).
Following addition of test compounds, the plates were loaded onto the Molecular Devices FLIPR. The 488 nm line of the argon laser was used to excite the BTC and the emission filter was a 540(+/−30) nm. Images were collected at 1 Hz. Ten seconds of baseline were collected and then the FLIPR was used to add 13 μl/well of a stimulus buffer composed of 7.5 mM Tl2SO4 in chloride free assay buffer. Images were collected for an additional 60 seconds.
For data analysis, the amplitude of the average of the negative controls was subtracted from all wells. The amplitudes of the test compounds were then compared to the value of four standard deviations of the negative control wells. The lowest concentration of a test compound sufficient to generate a signal amplitude greater than or equal to four standard deviations from the amplitude of the negative controls was defined as the minimal active concentration.
For generating EC50 values, compounds were serially diluted in 1:3 volume increments to produce a 10 point concentration series. EC50 values were calculated by fitting the resulting amplitudes to a single-site logistic equation. EC50 was defined as the concentration of test compound required to yield 50% of the maximal response. Maximal response (Maximal opening) was the largest signal amplitude divided by the negative control amplitude generated by any concentration of a test compound. […]

Structure (SMILES) | Min conc. response | EC50
CC(NC(=O)c1sc(C(O)CN2CCOCC2)nc1C(F)(F)F)c1cccc(OC(F)(F)F)c1 (centres unmarked) [Example 51, 2-[1-hydroxy-2-(4-morpholinyl)ethyl]-N-[1-[3-(trifluoromethoxy)phenyl]ethyl]-4-(trifluoromethyl)-5-thiazolecarboxamide] | 0.3 µM | 
C[C@H](NC(=O)c1sc(CCNCc2ccco2)nc1C(F)(F)F)c1cccc(-c2cccnc2)c1 [Example 35, 2-[2-[(2-furanylmethyl)amino]ethyl]-N-[1-[3-(3-pyridinyl)phenyl]ethyl]-4-(trifluoromethyl)-5-thiazolecarboxamide] | 10 µM | 1000 to 20000 nM
CC(NC(=O)c1sc(CCNC2CCCC2)nc1C(F)(F)F)c1cccc(OC(F)(F)F)c1 (centres unmarked) [Example 36, 2-[2-(cyclopentylamino)ethyl]-N-[1-[3-(trifluoromethoxy)phenyl]ethyl]-4-(trifluoromethyl)-5-thiazolecarboxamide] | 30 µM | 1000 to 20000 nM
CC(NC(=O)c1sc(CCN(C)CCN(C)C)nc1C(F)(F)F)c1cccc(C(F)(F)F)c1 (centres unmarked) [Example 20] | 30 µM | 1000 to 20000 nM
C[C@H](NC(=O)c1sc(CCN2CCCCC2)nc1C(F)(F)F)c1cccc(-c2cccnc2)c1 [Example 32, 2-[2-(1-piperidinyl)ethyl]-N-[1-[3-(3-pyridinyl)phenyl]ethyl]-4-(trifluoromethyl)-5-thiazolecarboxamide] | 3 µM | 1000 to 20000 nM
CCC(CC)NCCc1nc(C(F)(F)F)c(C(=O)NC(C)c2cccc(OC(F)(F)F)c2)s1 (centres unmarked) [Example 33, 2-[2-(3-pentylamino)ethyl]-N-[1-[3-(trifluoromethoxy)phenyl]ethyl]-4-(trifluoromethyl)-5-thiazolecarboxamide] |  | 1000 to 20000 nM
CC(NC(=O)c1sc(CCN2CCCCC2)nc1C(F)(F)F)c1cccc(C(F)(F)F)c1 (centres unmarked) [Example 24, 2-[2-(1-piperidinyl)ethyl]-N-[1-[3-(3-trifluoromethyl)phenyl]ethyl]-4-(trifluoromethyl)-5-thiazolecarboxamide] | 0.3 µM | 1000 to 20000 nM
C[C@H](NC(=O)c1sc(CCN2CCOCC2)nc1C(F)(F)F)c1cccc(N2CCOCC2)c1 [Example 45, 2-[2-(4-morpholinyl)ethyl]-N-[(1S)-1-[3-(4-morpholinyl)phenyl]ethyl]-4-(trifluoromethyl)-5-thiazolecarboxamide] | 3 µM | 
CC(NC(=O)c1sc(CCN2CCN(C)CC2)nc1C(F)(F)F)c1cccc(OC(F)(F)F)c1 (centres unmarked) [Example 21, 2-[2-(4-methyl-1-piperazinyl)ethyl]-N-[1-[3-(3-trifluoromethoxy)phenyl]ethyl]-4-(trifluoromethyl)-5-thiazolecarboxamide] | 0.3 µM | 1000 to 20000 nM
C[C@H](NC(=O)c1sc(CCN2CCN(C)CC2)nc1C(F)(F)F)c1cccc(N2CCOCC2)c1 [Example 48, 2-[2-(4-methyl-1-piperazinyl)ethyl]-N-[(1S)-1-[3-(4-morpholinyl)phenyl]ethyl]-4-(trifluoromethyl)-5-thiazolecarboxamide] | 3 µM | 
CCCN(CC1CC1)CC(O)c1nc(C(F)(F)F)c(C(=O)NC(C)c2cccc(C(F)(F)F)c2)s1 (centres unmarked) [Example 60, 2-[2-[(cyclopropylmethyl)propylamino]-1-hydroxyethyl]-4-(trifluoromethyl)-N-[1-[3-(trifluoromethyl)phenyl]ethyl]-5-thiazolecarboxamide] | 3 µM | 
CC(NC(=O)c1sc(CCN(C)Cc2ccco2)nc1C(F)(F)F)c1cccc(OC(F)(F)F)c1 (centres unmarked) [Example 14, 2-[2-[(2-furanylmethyl)methylamino]ethyl]-4-(trifluoromethyl)-N-[1-[3-(trifluoromethoxy)phenyl]ethyl]-5-thiazolecarboxamide] | 3 µM | < 50 nM
CCN(CC)CC(O)c1nc(C(F)(F)F)c(C(=O)N[C@@H](C)c2cccc(-c3cccnc3)c2)s1 (stereo partly drawn) [Example 50, 2-[2-(diethylamino)-1-hydroxyethyl]-N-[(1S)-1-[3-(3-pyridinyl)phenyl]ethyl]-4-(trifluoromethyl)-5-thiazolecarboxamide] | 0.3 µM | 
CC(NC(=O)c1sc(C(O)CN2CCN(C)CC2)nc1C(F)(F)F)c1cccc(C(F)(F)F)c1 (centres unmarked) [Example 53, 2-[1-hydroxy-2-(4-methyl-1-piperazinyl)ethyl]-4-(trifluoromethyl)-N-[1-[3-(trifluoromethyl)phenyl]ethyl]-5-thiazolecarboxamide] | 30 µM | 
CC(NC(=O)c1sc(CCN(C)CCN(C)C)nc1C(F)(F)F)c1cccc(N(C)C)c1 (centres unmarked) [Example 47, 2-[2-[[2-(dimethylamino)ethyl]methylamino]ethyl]-N-[1-[3-(dimethylamino)phenyl]ethyl]-4-(trifluoromethyl)-5-thiazolecarboxamide] | 0.3 µM | 
CC(NC(=O)c1sc(CCN(C)Cc2ccco2)nc1C(F)(F)F)c1cccc(-c2cccnc2)c1 (centres unmarked) [Example 12, 2-[2-[(2-furanylmethyl)methylamino]ethyl]-N-[1-[3-(3-pyridinyl)phenyl]ethyl]-4-(trifluoromethyl)-5-thiazolecarboxamide] | 3 µM | < 50 nM
CC(NC(=O)c1sc(CCN2CCCC2)nc1C(F)(F)F)c1cccc(OC(F)(F)F)c1 (centres unmarked) [Example 13, 2-[2-(1-pyrrolidinyl)ethyl]-4-(trifluoromethyl)-N-[1-[3-(trifluoromethoxy)phenyl]ethyl]-5-thiazolecarboxamide] | 10 µM | 1000 to 20000 nM
C[C@H](NC(=O)c1sc(C(O)CN2CCN(C)CC2)nc1C(F)(F)F)c1cccc(-c2cccnc2)c1 (stereo partly drawn) [Example 55, 2-[1-hydroxy-2-(4-methyl-1-piperazinyl)ethyl]-N-[(1S)-1-[3-(3-pyridinyl)phenyl]ethyl]-4-(trifluoromethyl)-5-thiazolecarboxamide] | 0.3 µM | 
COCCN(CCOC)CCc1nc(C(F)(F)F)c(C(=O)N[C@@H](C)c2cccc(-c3cccnc3)c2)s1 [Example 40] | 30 µM | 50 to 1000 nM
CC(NC(=O)c1sc(CCN(C)CCN(C)C)nc1C(F)(F)F)c1cccc(OC(F)(F)F)c1 (centres unmarked) [Example 19] | 3 µM | 1000 to 20000 nM
CC(=O)N1CCN(CC(O)c2nc(C(F)(F)F)c(C(=O)NC(C)c3cccc(C(F)(F)F)c3)s2)CC1 (centres unmarked) [Example 61, 2-[2-(4-acetyl-1-piperazinyl)-1-hydroxyethyl]-4-(trifluoromethyl)-N-[1-[3-(trifluoromethyl)phenyl]ethyl]-5-thiazolecarboxamide] | 10 µM | 
CC(NC(=O)c1sc(CCN2CCCCC2)nc1C(F)(F)F)c1cccc(N(C)C)c1 (centres unmarked) [Example 23, N-[1-[3-(dimethylamino)phenyl]ethyl]-2-[2-(1-piperidinyl)ethyl]-4-(trifluoromethyl)-5-thiazolecarboxamide] | 0.3 µM | 1000 to 20000 nM
CC(NC(=O)c1sc(CCN(C)Cc2ccncc2)nc1C(F)(F)F)c1cccc(C(F)(F)F)c1 (centres unmarked) [Example 17, 2-[2-[(4-pyridylmethyl)methylamino]ethyl]-4-(trifluoromethyl)-N-[1-[3-(trifluoromethyl)phenyl]ethyl]-5-thiazolecarboxamide] | 3 µM | 1000 to 20000 nM
CCCN(CCc1nc(C(F)(F)F)c(C(=O)NC(C)c2cccc(C(F)(F)F)c2)s1)CC1CC1 (centres unmarked) [Example 30, 2-[2-[(cyclopropylmethyl)propylamino]ethyl]-N-[1-[3-(trifluoromethyl)phenyl]ethyl]-4-(trifluoromethyl)-5-thiazolecarboxamide] | 3 µM | < 50 nM
